According to patent US20100173298A1, “HCV GENE” (priority 2007, published 2010):

Legend:
[1] = test system: pTPF1/AHC1_AgeBsr full-length HCV RNA replicon; experiment: Inhibition of replication of full-length HCV RNA replicon by interferon (core antigen in Huh7 cells); type: cell-based, hepatitis C virus (genotype 1b); settings: interferon 0.1 to 300 IU/ml for 24 hours, core antigen in cells vs no-interferon control
Text: (§1) Evaluation of an inhibitory action of interferon on the replication of the HCV RNA replicon was attempted using the full-length HCV RNA replicon. The full-length HCV RNA used for the evaluation of the inhibitory action of interferon was pTPF1/4B which was replicable with high efficiency in Huh7 cells in Example 4 and a chimera between AHC1 obtained in Example 6 and pTPF1/4B was also used. As for a chimera vector, the full-length HCV DNA pTPF1 was digested with restriction enzymes, Age I and Bsr GI and a fragment obtained by digesting AHC1 with restriction enzymes, Age I and Bsr GI were ligated to and inserted into the region of the cleavage of pTPF1, thereby preparing HCV DNA pTPF1/AHC1_AgeBsr in which the structural protein region of AHC1 was inserted. […]
(§2) At twenty four hours after the culture was started, the medium was replaced with culture medium dissolving various concentrations (from 0.1 IU/ml to 300 IU/ml) of interferon. […] Cell pellet was dissolved in 50 μl of RIPA buffer (20 mM Tris-HCl (pH 7.5), 150 mM NaCl, 1 mM EDTA, 1% NP40, 0.1% Deoxycholate, 0.1% SDS, Complete protease inhibitor cocktail (Roche diagnostics corporation) and supernatant was collected by centrifugation at 10 k rpm for 5 minutes. The supernatant in an amount of 5 μl was measured using a kit for HCV core antigen (FUJIREBIO, Lumipulse).

[2] = test system: pTPF1/4B full-length HCV RNA replicon; experiment: as above; type: cell-based, hepatitis C virus (genotype 1b); settings: pTPF1/4B RNA in Huh7 cells; interferon 0.1 to 300 IU/ml for 24 hours; core antigen in cells vs no-interferon control
Text: as §1, §2

interferon
Inhibitory activity for replication of HCV RNA replicon: IC50 [1]: 33 IU/m
Inhibitory activity for replication of HCV RNA replicon: IC50 [2]: >300 IU/m
